Experimental data as given in US6589996B2, “Treatment of disorders relating to the serotonergic system” (Orion Corporation, priority 2000, dated 2003).
Like-named read-outs stand apart in the source and are kept apart here.

Experiments:
mice [1] = details: single subcutaneous administration, 3 mg/kg; cited from earlier work
rats [2] = details: cited from earlier work
serotonin 5HT2A-receptor = serotonin 5HT2A-receptor (Homo sapiens, UniProt P28223); details: cited from earlier work
depressive symptoms = experiment: randomised placebo-controlled double-blind study in GAD: depressive symptoms (MADRS); type: in vivo, human
Experimental: (§1) The efficacy of deramciclane in the treatment of anxiety, specifically GAD, was studied in a randomised placebo-controlled double-blind study. In addition, the dosage-dependency of the effects of deramciclane was evaluated. A total of 208 patients were included in the study. The subjects were randomly assigned to four parallel groups to receive one tablet twice daily (b.i.d) of a placebo, 5 mg (=10 mg/day), 15 mg (=30 mg/day), or 30 mg (=60mg/day) deramciclane. The study started with a one-week placebo run-in period, followed by an eight-week placebo-controlled active treatment and a two-week placebo washout period.
The efficacy of deramciclane on depressive symptoms was studied using the Montgomery Asberg Depression Rating Scale (MADRS).

rats [3] = details: single intraperitoneal administration; cited from earlier work
[4] = target: serotonin 5-HT2C-receptor (Homo sapiens, UniProt P28335); details: cited from earlier work
serotonin 5-HT2C-receptor, sequence (P28335 33-458): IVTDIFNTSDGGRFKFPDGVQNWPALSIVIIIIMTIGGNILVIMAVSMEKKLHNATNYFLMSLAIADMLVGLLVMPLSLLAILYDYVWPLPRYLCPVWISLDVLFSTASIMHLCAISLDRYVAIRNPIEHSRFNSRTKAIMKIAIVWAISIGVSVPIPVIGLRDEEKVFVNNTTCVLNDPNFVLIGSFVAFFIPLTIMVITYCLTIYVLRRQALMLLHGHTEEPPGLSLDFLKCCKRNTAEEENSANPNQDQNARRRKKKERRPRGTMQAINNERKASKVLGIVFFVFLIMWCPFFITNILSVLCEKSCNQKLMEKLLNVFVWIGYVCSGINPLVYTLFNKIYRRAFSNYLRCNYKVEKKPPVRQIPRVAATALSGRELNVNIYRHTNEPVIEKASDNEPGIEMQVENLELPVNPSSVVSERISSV

withdrawal symptoms = experiment: randomised placebo-controlled double-blind study in GAD: Physician's Withdrawal Checklist (PWC); type: in vivo, human
Experimental: as §1
After stopping the above-described 8-week treatment period, no discontinuation effects were seen (measured by the Physician's Withdrawal Checklist, PWC). This is different and surprising from the experiences with the most other efficacious drugs used for the treatment of anxiety.

[5] = rat, single oral administration; cited from earlier work
[6] = target: T1, serotonin 5-HT2A-receptors in frontal cortex (Homo sapiens, UniProt P28223); details: human brain, single oral dose; cited from earlier work
T1 construct: serotonin 5-HT2A-receptors in frontal cortex of healthy male volunteers; from tissue; host or cells: frontal cortex of living healthy male volunteers (in vivo)
T1 sequence (P28223 whole entry): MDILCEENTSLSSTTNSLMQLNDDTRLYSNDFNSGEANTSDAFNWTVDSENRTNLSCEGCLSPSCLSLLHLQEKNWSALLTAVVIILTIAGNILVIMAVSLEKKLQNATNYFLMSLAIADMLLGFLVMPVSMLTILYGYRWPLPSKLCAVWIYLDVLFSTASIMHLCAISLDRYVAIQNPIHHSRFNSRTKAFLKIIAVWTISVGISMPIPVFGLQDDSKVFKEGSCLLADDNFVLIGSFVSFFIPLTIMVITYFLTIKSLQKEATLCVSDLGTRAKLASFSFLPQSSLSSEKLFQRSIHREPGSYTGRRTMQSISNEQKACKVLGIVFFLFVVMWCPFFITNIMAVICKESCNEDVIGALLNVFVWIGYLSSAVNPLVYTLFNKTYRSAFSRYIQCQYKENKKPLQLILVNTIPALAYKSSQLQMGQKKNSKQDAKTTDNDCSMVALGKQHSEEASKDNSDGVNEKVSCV

rats [7] = details: intraperitoneally 1 or 10 mg/kg, 8 times, twice a day; cited from earlier work
[8] = rats, 3 mg/kg, cited from earlier work
[9] = human, in vivo
Experimental: In a comparative pharmacokinetic study of orally administered deramciclane in rats, dogs, rabbits and humans (Klebovich et al Pharm. Pharmacol. Commun., 4:129-136, 1998), it was shown that the plasma concentration curves obtained after the administration of a single 3 mg/kg oral dose of deramciclane to rats (dogs, rabbits) and human show considerable species specific differences. […] Thus a 40-times lower oral dose of deramciclane could be used in man to result in the same maximal plasma concentration as in rat. […] Thus, over 300 times lower oral doses should result in equal exposure in humans than in rats. Basing only the Cmax difference between rat and man, it can be predicted that considerably lower doses should be centrally active in humans than in rat. The minimum oral effective anti-anxiety dose in rats was 1 mg/kg (1-30 mg/kg the full range; see above), i.e. in a 70 kg-man this would mean 70 mg dose. […] This would result in 70 mg/40=1.75 mg (i.e. 0.025 mg/kg) as an effective dose in man.

rats [10] = details: cited from earlier work; remark: listed apart in the source
[11] = human, cited from earlier work; for Cmin and Cmax range: repeated administration for one week
rats [12] = details: oral doses of 25 and 100 mg/kg; cited from earlier work
[13] = tested on: anxiety, specifically GAD; experiment: randomised placebo-controlled double-blind study in GAD: anxiety symptoms (HAM-A, CGI); type: in vivo, human; details: for CGI severity of illness: percentage of patients not ill or very mildly ill: after 8 weeks
Experimental: as §1
The efficacy of deramciclane on anxiety symptoms was studied by the efficacy variable Hamilton Anxiety Scale (HAM-A), analyzing the change in the score and using responder criterion (at least 50% reduction in HAM-A total score). The Clinical Global Impression (GCI) scale was also used for analyzing the efficacy of deramciclane on anxiety symptoms.

[14] = human, cited from earlier work
mice [15] = details: oral doses 48-160 mg/kg; cited from earlier work

serotonin 5HT2A-receptor, sequence (P28223 whole entry): as above

Question: With CN(C)CCO[C@]1(c2ccccc2)C[C@H]2CC[C@]1(C)C2(C)C [deramciclane, (1R,2S,4R)-(−)-2-[N,N-(dimethylaminoethoxy)]-2-phenyl-1,7,7-trimethyl-bicyclo [2.2.1]heptane] as the compound, how does the “activity in two compartment test” value (mice [1]) read?
Answer: active

Question: And the “effect on caerulein-induced decrease in exploratory behavior” value (rats [2]; intraperitoneal dose of 0.5 mg/kg)?
Answer: able to attenuate

Question: What about the “effect in elevated plus maze test” value (rats [2]; rats, single intraperitoneal doses 0.1 mg/kg-5 mg/kg) of the same compound?
Answer: totally ineffective

Question: What about the “antagonism of the receptor” value (serotonin 5HT2A-receptor) of the same compound?
Answer: potent antagonist

Question: And the binding affinity (serotonin 5HT2A-receptor; in vitro)?
Answer: high affinity

Question: And the “effect on MADRS score” value (depressive symptoms; 5 mg b.i.d)?
Answer: ineffective

Question: And the MADRS score decrease (depressive symptoms; 15 mg b.i.d, p=0.028)?
Answer: 7.7 points

Question: And the MADRS score decrease (depressive symptoms; 30 mg b.i.d, p=0.016)?
Answer: 8.0 points

Question: And the “effect on social interaction time” value (rats [3])?
Answer: enhanced the social interaction time

Question: And the minimum effective dose (rats [3])?
Answer: 0.7 mg/kg

Question: What about the “antagonism of the receptor” value [4] of the same compound?
Answer: potent antagonist

Question: And the binding affinity ([4]; in vitro)?
Answer: high affinity

Question: What about the “PWC value, Mean (SD)” value (withdrawal symptoms; 5 mg b.i.d., after 2 week wash-out) of the same compound?
Answer: 9 (8)

Question: What about the “PWC value, Mean (SD)” value (withdrawal symptoms; 5 mg b.i.d., after 8 week treatment) of the same compound?
Answer: 9 (7)

Question: What about the “PWC value, Mean (SD)” value (withdrawal symptoms; 15 mg b.i.d., after 2 week wash-out) of the same compound?
Answer: 8 (7)

Question: And the “PWC value, Mean (SD)” value (withdrawal symptoms; 15 mg b.i.d., after 8 week treatment)?
Answer: 7 (8)

Question: What about the “PWC value, Mean (SD)” value (withdrawal symptoms; 30 mg b.i.d., after 2 week wash-out) of the same compound?
Answer: 8 (7)

Question: What about the “PWC value, Mean (SD)” value (withdrawal symptoms; 30 mg b.i.d., after 8 week treatment) of the same compound?
Answer: 8 (8)

Question: And the “withdrawal symptoms after abrupt discontinuation” value (withdrawal symptoms; after 8-week treatment)?
Answer: did not cause any withdrawal symptoms

Question: And the “mean AUC 0-∞” value [5]?
Answer: 11.9 ng·h/mL

Question: What about the “plasma concentration at 50% 5HT2A-receptor occupancy” value [6] of the same compound?
Answer: ~21 ng/mL

Question: And the “plasma concentration at 90% 5HT2A-receptor occupancy” value [6]?
Answer: about 70 ng/ml

Question: What about the “effect on helpless behaviour induced by inescapable electric foot shocks” value (rats [7]) of the same compound?
Answer: dose dependently attenuated helpless behaviour

Question: What about the “radioactivity in organs including blood and the brain” value ([8]; intravenous administration) of the same compound?
Answer: high radioactivity

Question: And the “radioactivity in organs, especially the brain” value ([8]; oral administration, compared with intravenous)?
Answer: substantially lower

Question: And the “factor by which oral dose in man is lower for the same maximal plasma concentration as in rat” value [9]?
Answer: 40 times

Question: And the “factor by which oral dose is lower for equal exposure in humans than in rats” value ([9]; rat)?
Answer: over 300 times

Question: And the “minimum oral effective anti-anxiety dose” value (rats [10]; oral)?
Answer: 1 mg/kg

Question: And the “activity in punished drinking test” value (rats [10]; single oral administration, 1 mg/kg and 10 mg/kg)?
Answer: active

Question: What about the “Cmin and Cmax range” value ([11]; 20 mg daily) of the same compound?
Answer: 16 to 33 ng/mL

Question: And the “Cmin and Cmax range” value ([11]; 60 mg daily)?
Answer: 48 to 91 ng/mL

Question: And the Cmax ([11]; single oral 20 mg)?
Answer: 24 ± 9.4 ng/mL

Question: And the Cmax ([11]; single oral 30 mg)?
Answer: 27 ± 6.1 ng/mL

Question: What about the “effect in forced swimming test” value (rats [12]) of the same compound?
Answer: clearly ineffective

Question: What about the “HAM-A score, difference from placebo” value ([13]; 5 mg b.i.d, 8 weeks) of the same compound?
Answer: No difference

Question: What about the “CGI severity of illness: percentage of patients not ill or very mildly ill” value ([13]; 5 mg b.i.d) of the same compound?
Answer: 49%

Question: What about the “responders (at least 50% reduction in HAM-A total score)” value ([13]; 5 mg b.i.d., n=31) of the same compound?
Answer: 57%

Question: And the “HAM-A score decrease from baseline” value ([13]; 15 mg b.i.d, 8 weeks, p=0.006 vs placebo)?
Answer: 14.5 points

Question: And the “CGI severity of illness: percentage of patients not ill or very mildly ill” value ([13]; 15 mg b.i.d)?
Answer: 55%

Question: What about the “responders (at least 50% reduction in HAM-A total score)” value ([13]; 15 mg b.i.d., n=39, p=0.020 vs placebo) of the same compound?
Answer: 76%

Question: What about the “CGI severity of illness: percentage of patients not ill or very mildly ill” value ([13]; 30 mg b.i.d, p=0.030) of the same compound?
Answer: 61%

Question: What about the “HAM-A score decrease from baseline” value ([13]; 30 mg b.i.d., 8 weeks, not significant vs placebo) of the same compound?
Answer: 14.5 points

Question: And the “responders (at least 50% reduction in HAM-A total score)” value ([13]; 30 mg b.i.d., n=37)?
Answer: 70%

Question: And the Cmax ([14]; single 3 mg/kg oral dose)?
Answer: 217.5 ng/mL

Question: And the “mean AUC 0-∞” value ([14]; single oral administration)?
Answer: 3737.8 ng·h/mL

Question: What about the “effect on tetrabenazine-induced ptosis” value (mice [15]) of the same compound?
Answer: negligible
